# Assays:
# SHH/PTCH pathway [1] = experiment: Activation of PTCH1-luciferase reporter activity in SK PTCH1-Luc E6/E7 keratinocytes; format: cell-based, human; conditions: SK PTCH1-Luc E6/E7 cells, cultured 24 hours
# Description: (§1) Purmorphamine (SMO agonist) and GDC-0449 (SMO antagonist) were diluted in DMSO at stock concentrations of 50 mM and 10 mM, respectively. To avoid side effects and toxicity, the final concentration of DMSO was fixed to 0.1% DMSO.
# (§2) Lysis buffer and luciferase reagents were from the Steady-Glo® Luciferase Assay System kit (Promega, #E2520). Plates were read on a […] (TopCount, Perkin Elmer).
# (§3) Experimental conditions of activation using SMO agonist of the PTCH1-Luc-E6 E7 reporter cells were first set up for optimisation. The SK PTCH1-Luc E6/E7 cells were plated in 96-well at various densities (5000 to 50000 cells/well) in opaque plates (Greiner, ref: 655083). In parallel, in order to follow cell growth, confluency, and lysis, the cell line was also seeded in transparent 96 wells plates (Greiner 655098). Serial dilutions of purmorphamine were prepared (0.2 nM<Conc.<50 μM). Results were matched with EC50 and IC50 values obtained in the SHH-Light II cell line.
# Once experimental conditions optimized, SK PTCH1-Luc E6/E7 cells were plated at 45.000 cells per well, culture for 24 hours then treated for 48 hours by serial dilutions of purmorphamine. Each condition was done in duplicate and the experiment was performed at least twice. SK PTCH1-Luc E6/E7 cells responded to activation of the SHH/PTCH pathway when treated with purmorphamine and the EC50 value was determined at 1 μM (FIG. 3).
# SHH/PTCH pathway [2] = experiment: Inhibition of purmorphamine-induced luciferase activity in SK PTCH1-Luc E6/E7 keratinocytes; format: cell-based; conditions: Homo sapiens, Keratinocyte, SK PTCH1-Luc E6/E7 cells, co-treatment 48 hours with 2.5 μM purmorphamine (EC80)
# Description: as §1, §2, §3
# Co-treatment of SK PTCH1-Luc E6/E7 cells with purmorphamine and GDC-0449 led to the inhibition of the luciferase activity (FIG. 5). Under these circumstances, the IC50 of GDC-0449 was determined at 0.2 μM.
"EC50 (SHH/PTCH pathway [1]; Homo sapiens, Keratinocyte, 45.000 cells per well, treated 48 hours) [nM]",IC50 (SHH/PTCH pathway [2]) [nM],SMILES,"effective concentration for 80% activation (EC80) (SHH/PTCH pathway [1]; 45.000 cells/well, treated 48 hrs) [µM]"
1000,,"c1ccc2c(Oc3nc(Nc4ccc(N5CCOCC5)cc4)c4ncn(C5CCCCC5)c4n3)cccc2c1 [purmorphamine, Purmorphamine]",2.5
,200,CS(=O)(=O)c1ccc(C(=O)Nc2ccc(Cl)c(-c3ccccn3)c2)c(Cl)c1 [GDC-0449],

# — patent US9902934B2, “Human keratinocytes PTCH1 cell line” (GALDERMA RESEARCH & DEVELOPMENT, priority 2011, dated 2018)
